From ChEMBL document CHEMBL1129789, “Dopamine D3 and D4 receptor antagonists: synthesis and structure--activity relationships of (S)-(+)-N-(1-Benzyl-3-pyrrolidinyl)-5-chloro-4- [(cyclopropylcarbonyl) amino]-2-methoxybenzamide (YM-43611) and related compounds” (J Med Chem, 1996)

How the values were obtained:
[1] = target: T1, Muscarinic acetylcholine receptor M2 (Rattus norvegicus, UniProt P10980); test: Compound was tested for the Binding affinity against rat heart Muscarinic acetylcholine receptor M2 by Radio ligand [3H]quinuclidinyl binding assay
T1 sequence (P10980 whole entry): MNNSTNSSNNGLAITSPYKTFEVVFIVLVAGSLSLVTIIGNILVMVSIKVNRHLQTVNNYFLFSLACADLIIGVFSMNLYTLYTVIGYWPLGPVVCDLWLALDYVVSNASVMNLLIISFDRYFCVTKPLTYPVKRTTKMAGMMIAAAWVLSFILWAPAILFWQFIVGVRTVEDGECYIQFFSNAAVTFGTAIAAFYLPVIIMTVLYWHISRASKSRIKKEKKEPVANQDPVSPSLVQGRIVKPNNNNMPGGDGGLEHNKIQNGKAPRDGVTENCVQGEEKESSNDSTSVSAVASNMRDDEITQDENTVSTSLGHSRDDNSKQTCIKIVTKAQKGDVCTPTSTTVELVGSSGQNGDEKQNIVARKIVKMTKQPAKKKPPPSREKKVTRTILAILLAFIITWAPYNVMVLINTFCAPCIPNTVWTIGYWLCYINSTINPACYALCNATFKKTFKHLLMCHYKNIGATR

Mus musculus = test: Compound was tested for inhibition of Apomorphine induced climbing in Mice on subcutaneous administration; type: functional; details: sc

## COc1cc(NC(=O)C2CC2)c(Cl)cc1C(=O)N[C@H]1CCN(Cc2ccccc2)C1
[1]
  Ki: 7.3 µM
Mus musculus
  ED50: 0.32 mg/kg
